Results taken from publication PMC7933930, “Development of a small molecule that corrects misfolding and increases secretion of Z α1‐antitrypsin” (EMBO Molecular Medicine, 2021).

Assays:
Type in all cases: cell-based
Kv1.5 = Kv1.5 (Homo sapiens, UniProt P22460); experiment: Off‐target panel: Kv1.5; conditions: Blocker, read-out: Mean (PXC50)
Protocol: (§1) GSK716 selectivity and PK properties were profiled in order to investigate the suitability of GSK716 for progression into in vivo studies and the potential for taking it forward as a clinical candidate for testing in humans. Since GSK716 results in loss of inhibitory activity of α1‐antitrypsin, the effect of the compound was assessed on other closely related serpins. […] Furthermore, there were no off‐target effects in a panel of assays considered predictive of known safety liabilities that precluded further development of GSK716 (Table EV1).

[1] = system: Z α1‐antitrypsin polymers in CHO‐TET‐ON‐Z‐A1AT cells; experiment: Intracellular Z α1‐antitrypsin polymer formation in CHO‐TET‐ON‐Z‐A1AT cells (2C1 staining)
Protocol: The ability of GSK716 to block Z α1‐antitrypsin polymerisation in the ER during folding was assessed by adding GSK716 to CHO‐TET‐ON‐Z‐A1AT cells (Ordóñez et al, 2013) with simultaneous induction of Z α1‐antitrypsin expression using doxycycline. […] Similar potency between the effects on secretion and polymerisation was observed throughout members of the lead series supporting the hypothesis that these effects are caused by the same pharmacological mode of action.
Figure 2 GSK716 inhibits polymerisation of Z α1‐antitrypsin in cell models of disease • A GSK716 was added to CHO‐TET‐ON‐Z‐A1AT cells (Ordóñez et al, 2013) with simultaneous induction of Z α1‐antitrypsin expression using doxycycline, and polymer load was quantified with the 2C1 monoclonal antibody that is specific to pathological polymers of α1‐antitrypsin (Miranda et al, 2010). […] For every time point, NP‐40‐soluble and NP‐40‐insoluble fractions were separated and immunoprecipitated with the 2C1 mAb and resolved by 4–12% w/v SDS–PAGE and α1‐antitrypsin detected by immunoblotting. […] Cell viability was measured by Cell Counting Kit‐8. […] Samples were resolved by 4–12% w/v acrylamide SDS–PAGE and detected by autoradiography. • H The graphs show the effect of GSK716 on intracellular and extracellular Z α1‐antitrypsin (mean ± SEM, n = 2). […]

Histamine H1 = Histamine H1 (Homo sapiens, UniProt P35367); experiment: Off‐target panel: Histamine H1; conditions: Antagonist, read-out: Mean (PXC50)
Protocol: as §1

Sequence of Kv1.5 (P22460 whole entry): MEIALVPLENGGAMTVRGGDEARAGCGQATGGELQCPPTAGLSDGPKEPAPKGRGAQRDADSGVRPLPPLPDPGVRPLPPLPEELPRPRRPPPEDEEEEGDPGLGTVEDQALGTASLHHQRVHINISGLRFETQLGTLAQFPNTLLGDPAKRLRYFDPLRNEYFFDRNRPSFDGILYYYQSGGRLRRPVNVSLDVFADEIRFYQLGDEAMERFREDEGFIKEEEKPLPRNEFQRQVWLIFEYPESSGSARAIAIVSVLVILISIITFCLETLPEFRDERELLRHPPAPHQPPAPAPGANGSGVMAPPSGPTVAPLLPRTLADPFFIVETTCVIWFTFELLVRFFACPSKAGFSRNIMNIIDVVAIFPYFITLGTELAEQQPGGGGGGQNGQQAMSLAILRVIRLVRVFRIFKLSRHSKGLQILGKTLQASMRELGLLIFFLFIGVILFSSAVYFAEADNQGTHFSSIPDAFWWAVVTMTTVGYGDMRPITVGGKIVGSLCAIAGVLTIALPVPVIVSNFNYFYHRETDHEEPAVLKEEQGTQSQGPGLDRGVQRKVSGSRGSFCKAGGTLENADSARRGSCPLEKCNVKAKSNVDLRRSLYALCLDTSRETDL
Sequence of Histamine H1 (P35367 whole entry): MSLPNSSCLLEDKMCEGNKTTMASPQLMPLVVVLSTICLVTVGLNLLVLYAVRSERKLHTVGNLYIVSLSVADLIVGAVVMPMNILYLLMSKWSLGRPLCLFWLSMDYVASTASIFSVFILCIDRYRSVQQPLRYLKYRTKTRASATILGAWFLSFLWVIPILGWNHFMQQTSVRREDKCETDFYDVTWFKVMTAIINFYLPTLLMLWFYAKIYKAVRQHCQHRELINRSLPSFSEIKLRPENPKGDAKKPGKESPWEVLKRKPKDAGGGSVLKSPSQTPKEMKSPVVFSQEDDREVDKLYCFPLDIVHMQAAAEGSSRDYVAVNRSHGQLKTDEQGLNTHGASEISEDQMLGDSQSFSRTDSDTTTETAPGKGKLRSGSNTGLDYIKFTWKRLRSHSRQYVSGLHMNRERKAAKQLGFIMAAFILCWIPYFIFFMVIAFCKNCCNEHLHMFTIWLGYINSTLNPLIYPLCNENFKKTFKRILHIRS

CCC[C@@H](NC(=O)c1cccc2c1CC(=O)N2)[C@@H](O)c1cccc(F)c1C [GSK716] was tested, and the IC50 (Kv1.5) was greater than 50.1 µM, the “intracellular formation of Z α1‐antitrypsin polymers in comparison with controls” value [1] was “completely blocked” and the IC50 ([1]; doxycycline induction, n = 71, read-out: mean pIC50, intracellular formation of Z α1‐antitrypsin polymers (converted)) was 501 nM. For the same compound, the IC50 (Histamine H1) was greater than 25.1 µM.
